The results in this text go back to patent US7709443B2, “Cyclic peptide antitumor agents” (Northwestern University, priority 2003, dated 2010).

Series [1] concerns HCT-116 (human colon carcinoma). Nature of the series: cells. To be noted: for IC50: HCT-116 bioassay, Table 1. The text has this: The HCT-116 human colon adenocarcinoma screen is a tissue culture first line assay to detect inherent cytotoxicity against malignant cancer cells. This strain is considered to be an “indicator strain” by many for the selection of inhibitors that target solid tumors. The assay is a calorimetric endpoint assay which can be produced in 96-well format trays. Data are acquired by plate reader and dose response curves are produced by computer analysis. […] This assay is run routinely as described below and would be understood in the art.
1. Media (1000 mL McCoy's 5A Medium, 114 mL Fetal Bovine Serum, 25 mL Hepes buffer solution (IM), 12.5 mL Penicillin-Streptomycin solution)
2. Cell line (HCT-116, human colon cancer cell line)
3. Indicator (MTS and PMS in DPBS)
5. Standard anticancer drug (etoposide (VP-16); stock is 4 mg/mL in DMSO
6. DPBS (without CaCl2 and MgCl2)
1. Remove medium from the cells and rinse with 10 mL sterile DPBS.
3. Allow to stand in hood for 1 minute.
4. Remove trypsin with sterile pipette.
5. Allow flask to stand in hood for 2-5 minutes.
6. Add 10 mL of media to flask and pipette up and down to gently break up cell clumps.
7. Count the number of cells using a hemacytometer.
8. Determine # of plates needed, and total volume of cell suspension (16 or 18 mL per plate).
9. Dilute cells to a final concentration of 2.5×10^4 cells/mL in a sterile flask.
10. Pour cell suspension into a sterile trough.
For Serial Dilution Plates
1. Add 175 μL to each well in the first row of a 96 well plate.
2. Add 150 μL to the rest of the wells in A1-A10 & A12.
3. In row 11 add 150 μL cell suspension to the first 6 wells and only media to the last two.
For Single Concentration Plates
1. Add 150 μL of sterile media to G11 & H11.
2. Add 150 μL of cell suspension to all other wells.
3. Add 25 μL more to well H1.
Incubate plates overnight at 37° C. & 5% CO2
1. Add 25 μL of test compounds @ 10 mg/mL to A1-A10, 25 μL of DMSO to A11 & 25 μL of etoposide (4 mg/mL) to A12.
2. Using a twelve channel pipette, mix well then remove 50 μL from the first row and transfer to the next row, repeat down the plate until row F, then remove tip # 11 and continue down plate discarding the last 50 μL.
3. Incubate plates for 72 h.
1. Add 20 μL of MTS/PMS solution to each well.
3. Read plates @490 nm on plate reader.

The subject of series [2] is PC-3 (Prostate) human cancer cell line. To be noted: three days.
Protocol: (§1) Cells were plated at 5,000 cells per well in 24-well plates, treated for three days, then counted. Cell number was normalized to the number of cells in untreated control (DMSO) cells, also after three days.
The test system of series [3] is MDA-MB231 (Breast) human cancer cell line. Particulars: three days.
Protocol: as §1
The test system of series [4] is WM115 (Melanoma) human cancer cell line. Particulars: three days.
Protocol: as §1

SMILES strings stand for the structures. ≈ marks a conversion by molar mass, not a printed value. Like-named read-outs stand apart in the source and are kept apart here. Square brackets hold non-standard residues; d marks the D form. Peptide text beside a SMILES is read from it. Phe(4-Br) = N[C@@H](Cc1ccc(Br)cc1)C(=O)O; Phe(4-I) = N[C@@H](Cc1ccc(I)cc1)C(=O)O; Hica(2S) = CC(C)C[C@H](O)C(=O)O; NMeL = CN[C@@H](CC(C)C)C(=O)O

Take `CC(C)C[C@@H]1NC(=O)[C@H](C(C)C)NC(=O)[C@H](CC(C)C)OC(=O)[C@H](CC(C)C)NC(=O)[C@H](Cc2ccc(Br)cc2)NC1=O` (cyclo(L[Phe(4-Br)]L[Hica(2S)]V)): the IC50 in series [1] came to 4.5 µg/mL (≈ 6.76 µM).
Consider `CC(C)C[C@@H]1NC(=O)[C@H](C(C)C)NC(=O)[C@H](CC(C)C)OC(=O)[C@H](CC(C)C)NC(=O)[C@H](Cc2ccc(I)cc2)NC1=O` (cyclo(L[Phe(4-I)]L[Hica(2S)]V)), for which the IC50 in series [1] turned out to be 11.3 µg/mL (≈ 15.9 µM).
Regarding `CC(C)C[C@@H]1NC(=O)[C@H](Cc2ccccc2)NC(=O)[C@H](CC(C)C)NC(=O)[C@H](C(C)C)NC(=O)[C@H](CC(C)C)NC1=O` [Compound 1, sansalvamide A peptide] (cyclo(FLLVL)), the “Fold Induction Over DMSO control” value in series [2] (PC-3, 1 μM) was 1.03; in series [2] (PC-3, 10 μM) it was 0.90; in series [3] (MDA-MB231, 1 μM), 0.91; in series [3] (MDA-MB231, 10 μM) it was 0.69; in series [4] (WM115, 1 μM), 0.92; in series [4] (WM115, 10 μM), 0.56. This compound registered an IC50 in series [1] of 0.98 µg/mL (≈ 1.67 µM). The “times more potent than sansalvamide A toward HCT-116” value in series [1] (relative to sansalvamide A) was “about 10 times”.
For the compound `CC(C)C[C@@H]1NC(=O)[C@H](Cc2ccc(Br)cc2)NC(=O)[C@H](CC(C)C)NC(=O)[C@H](C(C)C)NC(=O)[C@H](CC(C)C)NC1=O` [Compound 1a] (cyclo([Phe(4-Br)]LLVL)), the “Fold Induction Over DMSO control” value in series [2] (PC-3, 1 μM) is given as 0.94; in series [2] (PC-3, 10 μM), 0.74; in series [3] (MDA-MB231, 1 μM) it was 0.95; in series [3] (MDA-MB231, 10 μM) it was 0.60; in series [4] (WM115, 1 μM), 0.85; in series [4] (WM115, 10 μM), 0.99.
Turning to `CC(C)C[C@@H]1NC(=O)[C@H](C(C)C)NC(=O)[C@H](CC(C)C)NC(=O)[C@H](CC(C)C)N(C)C(=O)[C@H](Cc2ccccc2)NC1=O` [Compound 1b] (cyclo(F[NMeL]LVL)), the “Fold Induction Over DMSO control” value is reported as 1.24 in series [2] (PC-3, 1 μM); 0.81 in series [2] (PC-3, 10 μM); 0.87 in series [3] (MDA-MB231, 1 μM); 0.71 in series [3] (MDA-MB231, 10 μM); 1.02 in series [4] (WM115, 1 μM); 3.02 in series [4] (WM115, 10 μM).
As to `CC(C)C[C@@H]1NC(=O)[C@H](C(C)C)NC(=O)[C@H](CC(C)C)N(C)C(=O)[C@H](CC(C)C)NC(=O)[C@H](Cc2ccccc2)NC1=O` [Compound 1d] (cyclo(FL[NMeL]VL)), the “Fold Induction Over DMSO control” value was 0.63 in series [2] (PC-3, 1 μM); 0.52 in series [2] (PC-3, 10 μM); 1.09 in series [3] (MDA-MB231, 1 μM); 0.91 in series [3] (MDA-MB231, 10 μM); 0.87 in series [4] (WM115, 1 μM); 0.98 in series [4] (WM115, 10 μM).
For `CC(C)C[C@@H]1NC(=O)[C@H](C(C)C)NC(=O)[C@H](CC(C)C)N(C)C(=O)[C@H](CC(C)C)NC(=O)[C@H](Cc2ccc(Br)cc2)NC1=O` [Compound 1e] (cyclo([Phe(4-Br)]L[NMeL]VL)), the “Fold Induction Over DMSO control” value was 0.62 in series [2] (PC-3, 1 μM); 0.82 in series [2] (PC-3, 10 μM); 1.20 in series [3] (MDA-MB231, 1 μM); 0.82 in series [3] (MDA-MB231, 10 μM); 0.89 in series [4] (WM115, 1 μM); 0.95 in series [4] (WM115, 10 μM).
